{"source": "patent US8865913B2", "about": "“Crystalline forms and processes for their preparation” (BIAL-Portela & C.A., S.A, priority 2010, dated 2014)", "assay_type_in_all_cases": "physicochemical", "key": {"[1]": {"experiment": "Organic vapor stress experiments", "method": "e. Organic Vapor Stress Experiments\nSamples of starting material were exposed to vapors of a specified organic solvent for a given amount of time by placing open vials with solids tested into 20 mL vials containing solvent. Organic vapor stress experiments were conducted at ambient temperature."}, "[2]": {"experiment": "Moisture sorption analysis (VTI SGA-100, 5 to 95% RH)", "conditions": "for hysteresis upon desorption: decreasing relative humidity; for hysteresis upon desorption / weight loss between ~95% and ~5% RH: desorption; for weight loss between ~95% and ~5% RH: ~95% to ~5% RH; for weight gain between ~5% and ~75% RH / total water uptake between ~5% and ~95% RH / weight gain between ~75% and ~95% RH: sorption; for weight gain between ~5% and ~75% RH: ~5% to ~75% RH; for total water uptake between ~5% and ~95% RH: ~5% to ~95% RH; for weight gain between ~75% and ~95% RH: ~75% to ~95% RH", "method": "9. Moisture Sorption Analysis\nMoisture sorption/desorption data were collected on a VTI SGA-100 Vapor Sorption Analyzer. NaCl and PVP were used as calibration standards. Samples were not dried prior to analysis. Sorption and desorption data were collected over a range from 5 to 95% RH at 10% RH increments under a nitrogen purge. The equilibrium criterion used for analysis was less than 0.0100% weight change in 5 minutes with a maximum equilibration time of 3 hours. Data were not corrected for the initial moisture content of the samples."}, "[3]": {"experiment": "Slow cooling of the melt experiment", "conditions": "77° C., SC to RT; sample no. 3", "excerpt": "j. Slow Cooling of the Melt Experiment\nSamples of amorphous material were heated on a hot plate at temperature above the glass transition. The sample was then allowed to slow cool to ambient by turning the heating device off."}, "[4]": {"experiment": "Heat stress experiments of amorphous material", "conditions": "sample no. 3", "excerpt": "i. Heat Stress Experiments\nSamples of amorphous material were placed in heating ovens at temperature set below or above the glass transition, or were agitated on a shaker block at elevated temperature for a given duration."}, "[5]": {"experiment": "Aqueous vapor stress experiments", "method": "d. Aqueous Vapor Stress Experiments\nSamples of starting material were exposed to ˜85% and ˜97% relative humidity at ambient temperature and ˜75% relative humidity at ˜40° C. for a specified duration."}, "[6]": {"experiment": "Mechanical stress experiments (ball mill, dry/wet grinding)", "excerpt": "h. Mechanical Stress Experiments\nSamples of starting material were placed in a Retsch ball mill and milled for two five-minute cycles without solvent (dry grinding) or with a small amount of solvent added (wet grinding) scraping the solids between the cycles. Ten-minute cycles were used for milling of a selected sample without addition of solvent."}}, "data": [{"compound": "Fc1cc(F)c2c(c1)C[C@@H](n1c(CCNCc3ccccc3)c[nH]c1=S)CO2", "note": "[Amorphous, 1-[(3R)-6,8-difluoro-3,4-dihydro-2H-1-benzopyran-3-yl]-1,3-dihydro-5-[2-[(phenylmethyl)amino]ethyl]-2H-Imidazole-2-thione]", "values": [{"measurement": "XRPD result after organic vapor stress", "setting": "[1]; Acetone, 1 day, starting material sample no. 2", "value": "Form A"}, {"measurement": "XRPD result after organic vapor stress", "setting": "[1]; CHCl3, 1 day, starting material sample no. 2", "value": "Form A"}, {"measurement": "XRPD result after organic vapor stress", "setting": "[1]; EtOAc, 1 day, starting material sample no. 2", "value": "Form B"}, {"measurement": "XRPD result after organic vapor stress", "setting": "[1]; IPE, 2 days, starting material sample no. 3", "value": "Form A"}, {"measurement": "moisture retained upon desorption", "setting": "[2]; desorption between ~85% and ~15% RH", "value": "3.6-5.8 wt %"}, {"measurement": "hysteresis upon desorption", "setting": "[2]; listed as Sample No. 2", "value": "large hysteresis"}, {"measurement": "hysteresis upon desorption", "setting": "[2]; listed as amorphous compound 2", "value": "hysteresis over a range of more than 50% RH"}, {"measurement": "weight loss between ~95% and ~5% RH", "setting": "[2]; listed as Sample No. 2", "value": "~8.6", "unit": "wt %"}, {"measurement": "weight loss between ~95% and ~5% RH", "setting": "[2]; listed as amorphous compound 2", "value": "around 8.6 wt %"}, {"measurement": "hygroscopicity", "setting": "[2]; moisture sorption, amorphous material", "value": "significant hygroscopicity (a material that exhibits ≧2.0 wt % water uptake over a specified RH range)"}, {"measurement": "weight gain upon equilibration at ~5% RH", "setting": "[2]; moisture sorption, listed as Sample No. 2", "value": "~0.1", "unit": "wt %"}, {"measurement": "weight gain upon equilibration at ~5% RH", "setting": "[2]; moisture sorption, listed as amorphous compound 2", "value": "around 0.08 wt %"}, {"measurement": "weight gain between ~5% and ~75% RH", "setting": "[2]; listed as Sample No. 2", "value": "approximately 1.2 wt %"}, {"measurement": "weight gain between ~5% and ~75% RH", "setting": "[2]; listed as amorphous compound 2", "value": "around 1.2 wt %"}, {"measurement": "total water uptake between ~5% and ~95% RH", "setting": "[2]; listed as Sample No. 2", "value": "~9.9", "unit": "wt %"}, {"measurement": "weight gain between ~75% and ~95% RH", "setting": "[2]; listed as Sample No. 2", "value": "~8.7", "unit": "wt %"}, {"measurement": "weight gain between ~75% and ~95% RH", "setting": "[2]; listed as amorphous compound 2", "value": "around 8.7 wt %"}, {"measurement": "XRPD result after cooling from the melt", "setting": "[3]", "value": "Amorphous/Form A mixture"}, {"measurement": "XRPD result after heat stress", "setting": "[4]; 36° C., 1 day, heating with agitation", "value": "Disordered, Form A"}, {"measurement": "XRPD result after heat stress", "setting": "[4]; 40° C., 3 hrs", "value": "Amorphous/Form A mixture"}, {"measurement": "XRPD result after heat stress", "setting": "[4]; 50° C., 3 hrs", "value": "Amorphous/Form A mixture"}, {"measurement": "XRPD result after heat stress", "setting": "[4]; 60° C., 3 hrs", "value": "Disordered, Form A"}, {"measurement": "XRPD result after heat stress", "setting": "[4]; 80° C., 3 hrs", "value": "Form A^c"}, {"measurement": "XRPD result after heat stress", "setting": "[4]; 80° C., 1 day", "value": "Form A^c"}, {"measurement": "XRPD result after aqueous vapor stress", "setting": "[5]; 75% RH, 40° C., 1 day, starting material sample no. 3", "value": "Disordered, Form A"}, {"measurement": "XRPD result after aqueous vapor stress", "setting": "[5]; 85% RH, 3 days, starting material sample no. 14", "value": "No peaks"}, {"measurement": "XRPD result after aqueous vapor stress", "setting": "[5]; 97% RH, RT, 6 days, starting material sample no. 3", "value": "Amorphous/Form A mixture"}]}, {"compound": "Fc1cc(F)c2c(c1)C[C@@H](n1c(CCNCc3ccccc3)c[nH]c1=S)CO2", "note": "[Form A, 1-[(3R)-6,8-difluoro-3,4-dihydro-2H-1-benzopyran-3-yl]-1,3-dihydro-5-[2-[(phenylmethyl)amino]ethyl]-2H-imidazole-2-thione]", "values": [{"measurement": "XRPD result after organic vapor stress", "setting": "[1]; CHCl3, vapor stress, 11 days", "value": "Form A"}, {"measurement": "XRPD result after organic vapor stress", "setting": "[1]; EtOAc, vapor stress, 11 days", "value": "Form A"}, {"measurement": "hygroscopicity", "setting": "[2]; 5% to 95% RH", "value": "low hygroscopicity (a material that exhibits <0.5 wt(weight) % water uptake over a specified relative humidity range)"}, {"measurement": "hysteresis upon desorption", "setting": "[2]", "value": "hysteresis between around 85% to around 45% RH"}, {"measurement": "hysteresis upon desorption", "setting": "[2]; listed as Lot 5", "value": "Small hysteresis"}, {"measurement": "hysteresis upon desorption", "setting": "[2]; listed as lot 5", "value": "small hysteresis"}, {"measurement": "weight loss between ~95% and ~5% RH", "setting": "[2]", "value": "around 0.20 wt %"}, {"measurement": "weight loss between ~95% and ~5% RH", "setting": "[2]; listed as Lot 5", "value": "~0.20", "unit": "wt %"}, {"measurement": "weight loss between ~95% and ~5% RH", "setting": "[2]; listed as lot 5", "value": "~0.20", "unit": "wt %"}, {"measurement": "weight change upon equilibration at ~5% RH", "setting": "[2]; moisture sorption", "value": "negligible loss"}, {"measurement": "weight change upon equilibration at ~5% RH", "setting": "[2]; moisture sorption, listed as Lot 5", "value": "Negligible loss upon equilibration at ~5% RH"}, {"measurement": "weight change upon equilibration at ~5% RH", "setting": "[2]; moisture sorption, listed as lot 5", "value": "negligible weight loss"}, {"measurement": "weight gain between ~5% and ~75% RH", "setting": "[2]", "value": "around 0.02 wt %"}, {"measurement": "weight gain between ~5% and ~75% RH", "setting": "[2]; listed as Lot 5", "value": "~0.02 wt % gain between ~5% and ~75% RH"}, {"measurement": "weight gain between ~5% and ~75% RH", "setting": "[2]; listed as lot 5", "value": "~0.02", "unit": "wt %"}, {"measurement": "total water uptake between ~5% and ~95% RH", "setting": "[2]; listed as lot 5", "value": "~0.21", "unit": "wt %"}, {"measurement": "weight gain between ~75% and ~95% RH", "setting": "[2]", "value": "around 0.19 wt %"}, {"measurement": "weight gain between ~75% and ~95% RH", "setting": "[2]; listed as Lot 5", "value": "~0.19 wt % gain between ~75% and ~95% RH"}, {"measurement": "weight gain between ~75% and ~95% RH", "setting": "[2]; listed as lot 5", "value": "~0.19", "unit": "wt %"}, {"measurement": "XRPD result after mechanical stress", "setting": "[6]; Acetone, wet grinding, 2 × 5 min. cycles", "value": "Form A"}, {"measurement": "XRPD result after mechanical stress", "setting": "[6]; DMF, wet grinding, 2 × 5 min. cycles", "value": "Form A"}, {"measurement": "XRPD result after mechanical stress", "setting": "[6]; Dry grinding, 2 × 5 min. cycles", "value": "Form A (disordered)"}, {"measurement": "XRPD result after mechanical stress", "setting": "[6]; Dry grinding, 2 × 10 min. cycles", "value": "Form A (disordered)"}, {"measurement": "XRPD result after mechanical stress", "setting": "[6]; MEK, wet grinding, 2 × 5 min. cycles", "value": "Form A"}, {"measurement": "XRPD result after mechanical stress", "setting": "[6]; TFE, wet grinding, 2 × 5 min. cycles", "value": "Form A"}, {"measurement": "XRPD result after mechanical stress", "setting": "[6]; THF, wet grinding, 2 × 5 min. cycles", "value": "Form A"}, {"measurement": "stability of the crystal form upon mechanical stress", "setting": "[6]; summary statement", "value": "remains stable as a crystal form"}, {"measurement": "XRPD result after aqueous vapor stress", "setting": "[5]; 75% RH, 40° C., 2 days", "value": "Form A"}, {"measurement": "XRPD result after aqueous vapor stress", "setting": "[5]; 85% RH, 2 days", "value": "Form A"}, {"measurement": "stability of the crystal form upon aqueous vapor stress", "setting": "[5]; summary statement", "value": "remains stable as a crystal form"}]}]}
